Assays:
Format in all cases: biochemical
[1] = target: T1, Human Factor XIIa (Homo sapiens, UniProt P00748); assay: Determination of FXIIa inhibition (fluorogenic substrate H-DPro-Phe-Arg-AFC, IC50 assay); settings: substrate at Km concentration, 25° C.; category scale; read-out: Human FXII IC50 (nm)
T1 construct: Proteolytic cleavage of FXII to heavy and light chains of FXIIa dramatically increases catalytic activity; purchased Enzyme Research Laboratories
T1 sequence (P00748 373-615 limits assumed): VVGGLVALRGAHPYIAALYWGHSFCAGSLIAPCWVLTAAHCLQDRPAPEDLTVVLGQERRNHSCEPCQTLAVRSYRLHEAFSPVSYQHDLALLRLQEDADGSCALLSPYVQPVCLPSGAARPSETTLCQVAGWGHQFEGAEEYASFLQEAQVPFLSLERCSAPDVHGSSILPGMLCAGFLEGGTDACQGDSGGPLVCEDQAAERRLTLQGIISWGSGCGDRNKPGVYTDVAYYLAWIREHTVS
T1 sequence (P00748 20-372 partner limits assumed): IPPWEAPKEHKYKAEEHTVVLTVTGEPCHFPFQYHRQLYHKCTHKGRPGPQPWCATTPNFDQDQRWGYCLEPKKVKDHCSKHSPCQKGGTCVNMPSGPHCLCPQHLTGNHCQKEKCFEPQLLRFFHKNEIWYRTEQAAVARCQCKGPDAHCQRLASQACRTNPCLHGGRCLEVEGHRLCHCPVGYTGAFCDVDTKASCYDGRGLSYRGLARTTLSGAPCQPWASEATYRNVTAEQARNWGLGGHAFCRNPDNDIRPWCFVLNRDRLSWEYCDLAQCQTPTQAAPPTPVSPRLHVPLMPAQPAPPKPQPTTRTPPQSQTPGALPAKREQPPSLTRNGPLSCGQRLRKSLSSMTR
Method in brief: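 Human FXIIa incubated at 25° C. with fluorogenic H-DPro-Phe-Arg-AFC at its Km concentration plus varying compound levels. Linear fluorescence increase over 5 min taken as % activity; IC50 is concentration halving uninhibited activity.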

[2] = target: T2, Plasma Kallikrein (Homo sapiens, UniProt P03952); assay: Related protease inhibition: Plasma Kallikrein (fluorogenic substrate at Km); settings: class symbols per Table 18, read-out: IC50 (human PKal)
T2 construct: FXIIa converts plasma prekallikrein (PK) to plasma kallikrein (PKa)
T2 sequence (P03952 391-638 limits assumed): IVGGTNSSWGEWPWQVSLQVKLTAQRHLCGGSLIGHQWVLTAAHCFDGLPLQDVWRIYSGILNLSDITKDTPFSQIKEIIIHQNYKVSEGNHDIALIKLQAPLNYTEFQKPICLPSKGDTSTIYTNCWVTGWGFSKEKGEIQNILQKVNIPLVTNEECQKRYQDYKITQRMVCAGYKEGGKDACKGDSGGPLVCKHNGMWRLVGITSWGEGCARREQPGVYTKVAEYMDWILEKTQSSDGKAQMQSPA
T2 sequence (P03952 20-390 partner limits assumed): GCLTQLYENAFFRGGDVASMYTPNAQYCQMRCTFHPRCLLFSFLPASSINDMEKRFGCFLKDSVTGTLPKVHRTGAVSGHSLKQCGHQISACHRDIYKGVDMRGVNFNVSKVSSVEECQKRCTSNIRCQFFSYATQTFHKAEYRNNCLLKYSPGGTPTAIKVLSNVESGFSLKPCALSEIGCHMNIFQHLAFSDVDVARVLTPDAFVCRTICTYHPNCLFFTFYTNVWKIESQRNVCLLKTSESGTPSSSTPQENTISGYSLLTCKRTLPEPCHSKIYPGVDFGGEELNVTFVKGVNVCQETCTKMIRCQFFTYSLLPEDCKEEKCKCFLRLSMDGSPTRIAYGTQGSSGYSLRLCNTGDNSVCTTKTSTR
Protocol: (§1) In vitro inhibition of related proteases was determined using an IC50 assay based on standard literature methods (see e.g. Shori et al., Biochem. Pharmacol., 1992, 43, 1209; Bouckaert et al., European Journal of Medicinal Chemistry 110 (2016) 181). Human serine protease enzyme Plasma Kallikrein, KLK1, FXa, Plasmin, Thrombin and Trypsin were assayed for enzymatic activity using an appropriate fluorogenic substrate at Km concentration, FXIa at fixed substrate concentration of 100 μM and various concentrations of the test compound. Protease activity was measured by monitoring the accumulation of liberated fluorescence from the substrate over 5 min at 25° C. The linear rate of fluorescence increase per minute was expressed as percentage (%) activity. IC50 values were calculated as the concentration of inhibitor giving 50% inhibition of the uninhibited enzyme activity (100%).

[3] = target: KLK1 (Homo sapiens, UniProt P06870); assay: Related protease inhibition: KLK1 (fluorogenic substrate at Km); settings: class symbols per Table 18
Sequence of KLK1 (P06870 25-262): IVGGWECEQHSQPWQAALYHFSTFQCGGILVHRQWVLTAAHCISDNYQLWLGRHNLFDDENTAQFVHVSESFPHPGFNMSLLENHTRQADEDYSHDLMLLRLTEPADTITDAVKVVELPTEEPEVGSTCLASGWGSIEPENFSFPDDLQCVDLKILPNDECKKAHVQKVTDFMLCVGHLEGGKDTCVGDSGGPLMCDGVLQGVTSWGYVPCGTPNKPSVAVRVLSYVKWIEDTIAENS
Protocol: as §1

Row | Structure (SMILES) | IC50 [1] [µM] | IC50 [2] [µM] | IC50 [3] [µM]
1 | Clc1cc2c(NCC34CC(COc5ccn6ccnc6c5)(CO3)C4)ccnc2[nH]1 [Example 6606, 2-chloro-N-((4-((imidazo[1,2-a]pyridin-7-yloxy)methyl)-2-oxabicyclo[2.1.1]hexan-1-yl)methyl)-1H-pyrrolo[2,3-b]pyridin-4-amine] | 1 to 3 | > 40 | 
2 | Nc1nccc2c(NCC34CC(COC5CCc6nccn6C5)(CO3)C4)cccc12 (centres unmarked) [Example 6610, N5-((4-(((5,6,7,8-tetrahydroimidazo[1,2-a]pyridin-6-yl)oxy)methyl)-2-oxabicyclo[2.1.1]hexan-1-yl)methyl)isoquinoline-1,5-diamine] | 0.3 to 1 | > 40 | 
3 | Clc1cc2c(NCC34CC(COc5ccc6nccn6c5)(CO3)C4)ccnc2[nH]1 [Example 6611, 2-chloro-N-((4-((imidazo[1,2-a]pyridin-6-yloxy)methyl)-2-oxabicyclo[2.1.1]hexan-1-yl)methyl)-1H-pyrrolo[2,3-b]pyridin-4-amine] | 1 to 3 | > 40 | 
4 | Nc1nccc2c(NCC34CC(COc5ccc6nccn6n5)(CO3)C4)cccc12 [Example 6612, N5-((4-((imidazo[1,2-b]pyridazin-6-yloxy)methyl)-2-oxabicyclo[2.1.1]hexan-1-yl)methyl)isoquinoline-1,5-diamine] | 1 to 3 | > 40 | 
5 | Nc1nccc2c(OCC34CC(CNc5ccc6nccn6c5)(CO3)C4)cccc12 [Example 6619, 5-((4-((imidazo[1,2-a]pyridin-6-ylamino)methyl)-2-oxabicyclo[2.1.1]hexan-1-yl)methoxy)isoquinolin-1-amine] | 0.3 to 1 |  | 10 to 40
6 | Cc1cc2nccn2cc1OCC12COC(CNc3cccc4c(N)nccc34)(C1)C2 [Example 6622, N5-((4-(((7-methylimidazo[1,2-a]pyridin-6-yl)oxy)methyl)-2-oxabicyclo[2.1.1]hexan-1-yl)methyl)isoquinoline-1,5-diamine] | 0.01 to 0.1 |  | 1 to 3
7 | Cc1c(OCC23COC(CNc4cccc5c(N)nccc45)(C2)C3)ccc2nccn12 [Example 6626, N5-((4-(((5-methylimidazo[1,2-a]pyridin-6-yl)oxy)methyl)-2-oxabicyclo[2.1.1]hexan-1-yl)methyl)isoquinoline-1,5-diamine] | 0.01 to 0.1 |  | 1 to 3
8 | Nc1nccc2c(NCC34CC(COc5ccc6ncc(C(F)(F)F)n6c5)(CO3)C4)cccc12 [Example 6627, N5-((4-(((3-(trifluoromethyl)imidazo[1,2-a]pyridin-6-yl)oxy)methyl)-2-oxabicyclo[2.1.1]hexan-1-yl)methyl)isoquinoline-1,5-diamine] | 1 to 3 |  | 3 to 10
9 | CC1(C)OC2(CNc3cccc4c(N)nccc34)CC1(COc1ccc3nccn3c1)C2 [Example 7703, N5-((4-((imidazo[1,2-a]pyridin-6-yloxy)methyl)-3,3-dimethyl-2-oxabicyclo[2.1.1]hexan-1-yl)methyl)isoquinoline-1,5-diamine] | 0.1 to 0.3 | > 40 | 
10 | CC1(C)OC2(COc3cccc4c(N)nccc34)CC1(COc1ccc3nccn3c1)C2 [Example 7704, 5-((4-((imidazo[1,2-a]pyridin-6-yloxy)methyl)-3,3-dimethyl-2-oxabicyclo[2.1.1]hexan-1-yl)methoxy)isoquinolin-1-amine] | 0.3 to 1 | > 40 | 
11 | Nc1nccc2c(N3CC4(CC(OCc5ccn6ccnc6c5)C4)C3)cccc12 [Example 8801, 5-(6-(imidazo[1,2-a]pyridin-7-ylmethoxy)-2-azaspiro[3.3]heptan-2-yl)isoquinolin-1-amine] | 10 to 40 | > 40 | 
12 | Nc1nccc2c(N3CCC4(CC(OCc5ccn6ccnc6c5)C4)C3)cccc12 (centres unmarked) [Example 8803, 5-(2-(imidazo[1,2-a]pyridin-7-ylmethoxy)-6-azaspiro[3.4]octan-6-yl)isoquinolin-1-amine] | 1 to 3 | > 40 | 
13 | Nc1nccc2c(N3CCC4(CC(OCc5ccn6ccnc6c5)C4)C3)cccc12 (stereo not drawn) [Example 8804, 5-(cis*-2-(imidazo[1,2-a]pyridin-7-ylmethoxy)-6-azaspiro[3.4]octan-6-yl)isoquinolin-1-amine] | 1 to 3 | > 40 | 
14 | Nc1nccc2c(N3CCC4(CC(OCc5ccn6ccnc6c5)C4)C3)cccc12 (stereo not drawn) [Example 8805, 5-(trans*-2-(imidazo[1,2-a]pyridin-7-ylmethoxy)-6-azaspiro[3.4]octan-6-yl)isoquinolin-1-amine] | 1 to 3 | > 40 | 
15 | Nc1nccc2c(N3CC4(CC(COc5ccc6nccn6c5)C4)C3)cccc12 [Example 8808, 5-(6-((imidazo[1,2-a]pyridin-6-yloxy)methyl)-2-azaspiro[3.3]heptan-2-yl)isoquinolin-1-amine] | 10 to 40 | > 40 | 
16 | Nc1nccc2c(N3CC4(CCC4OCc4ccn5ccnc5c4)C3)cccc12 (centres unmarked) [Example 9001, 5-(5-(imidazo[1,2-a]pyridin-7-ylmethoxy)-2-azaspiro[3.3]heptan-2-yl)isoquinolin-1-amine] | 10 to 40 | > 40 | 
17 | Nc1nccc2c(NCC34CC(COC5CCn6ccnc6C5)(CCO3)C4)cccc12 (centres unmarked) [Example 10903, N5-((5-(((5,6,7,8-tetrahydroimidazo[1,2-a]pyridin-7-yl)oxy)methyl)-2-oxabicyclo[3.1.1]heptan-1-yl)methyl)isoquinoline-1,5-diamine] | 0.3 to 1 | > 4 | 
18 | Nc1nccc2c(NCC34CC(COC5CCc6nccn6C5)(CCO3)C4)cccc12 (centres unmarked) [Example 10908, N5-((5-(((5,6,7,8-tetrahydroimidazo[1,2-a]pyridin-6-yl)oxy)methyl)-2-oxabicyclo[3.1.1]heptan-1-yl)methyl)isoquinoline-1,5-diamine] | 0.3 to 1 | > 40 | 
19 | Clc1cc2c(NCC34CC(COc5ccc6nccn6c5)(CCO3)C4)ccnc2[nH]1 [Example 10909, 2-Chloro-N-[[5-(imidazo[1,2-a]pyridin-6-yloxymethyl)-2-oxabicyclo[3.1.1]heptan-1-yl]methyl]-1H-pyrrolo[2,3-b]pyridin-4-amine] | 1 to 3 | > 40 | 
20 | Nc1nccc2c(NCC34CC(COc5ccc6nnc(C(F)F)n6n5)(CCO3)C4)cccc12 [Example 10910, N5-((5-(((3-(difluoromethyl)-[1,2,4]triazolo[4,3-b]pyridazin-6-yl)oxy)methyl)-2-oxabicyclo[3.1.1]heptan-1-yl)methyl)isoquinoline-1,5-diamine] | 0.1 to 0.3 | > 40 | 
21 | Cn1cccc(OCC23CCOC(CNc4cccc5c(N)nccc45)(C2)C3)c1=O [Example 10911, 3-((1-(((1-aminoisoquinolin-5-yl)amino)methyl)-2-oxabicyclo[3.1.1]heptan-5-yl)methoxy)-1-methylpyridin-2(1H)-one] | 3 to 10 | > 40 | 
22 | Nc1nccc2c(NCC34CC(COc5ncccn5)(CCO3)C4)cccc12 [Example 10912, N5-((5-((pyrimidin-2-yloxy)methyl)-2-oxabicyclo[3.1.1]heptan-1-yl)methyl)isoquinoline-1,5-diamine] | 10 to 40 | > 40 | 
23 | Nc1nccc2c(NCC34CC(COc5ccccn5)(CCO3)C4)cccc12 [Example 10914, N5-((5-((pyridin-2-yloxy)methyl)-2-oxabicyclo[3.1.1]heptan-1-yl)methyl)isoquinoline-1,5-diamine] | 3 to 10 | > 40 | 
24 | Nc1nccc2c(NCC34CC(Cn5ccccc5=O)(CCO3)C4)cccc12 [Example 10915, 1-((1-(((1-aminoisoquinolin-5-yl)amino)methyl)-2-oxabicyclo[3.1.1]heptan-5-yl)methyl)pyridin-2(1H)-one] | 10 to 40 | > 40 | 
25 | Nc1nccc2c(NCC34CN(C(=O)OCc5ccccc5)C(C(=O)N5CCn6c(nnc6C(F)(F)F)C5)(C3)C4)cccc12 [Example 13002, benzyl 4-(((1-aminoisoquinolin-5-yl)amino)methyl)-1-(3-(trifluoromethyl)-5,6,7,8-tetrahydro-[1,2,4]triazolo[4,3-a]pyrazine-7-carbonyl)-2-azabicyclo[2.1.1]hexane-2-carboxylate] | 10 to 40 | > 40 | 
